Where “and” joins values, the source holds several entries; their conditions need not be identical. Equal values may be shown once.
Legend:
[1] = system: estrogen-induced uterotrophic effect; assay: In vivo anti-estrogenic (anti-uterotrophic) activity, immature rat model; design: species or system Wistar immature female rats; details: oral, 20 mg/kg (tamoxifen 20 mg/kg/day, 6j equimolar per method), 3 days, with estradiol 10 μg/kg/day s.c.; immature female rats
Procedure: The anti-estrogenic activity was assessed as previously described.[65]−[67] All experiments were carried out in accordance with the recommendations of the […] Animal Care and Use Committee. The experimental protocol was approved by “The Commission on the Ethics of Scientific Research”, Faculty of Pharmacy, Minia University (no. ES30/2021). 20-day-old Wistar immature female rats (40–50 g) from the animal care facility of Nahda University at Beni Suef (NUB) were allowed to acclimatize to lab conditions for 3 days before the experiment with free access to food and water. Estradiol was diluted in olive oil and subcutaneously injected on the loose dorsal skin in a dose of 10 μg/kg/day. […] Both compounds were dissolved in a mixture of DMSO, Tween 20, and saline (1:1:8, respectively) and orally administered. The rats were randomly assigned to […] (n = 6) subjected to daily s.c. injections of estradiol, except for the control group. […] On the 4th day, all rats were sacrificed by cervical dislocation, and the uteri were dissected free of fat and weighed immediately. […] The results were expressed as percent inhibition from the formula [drawing 1] […] It is noteworthy that doses of the tested compounds are calculated on a molar basis. […] Values are expressed as mean ± SEM.

ER-α = assay: In vitro ER-α inhibitory ELISA assay in MCF-7 cells; format: cell-based, human; details: 1 μg/mL, 24 h
Procedure: An in vitro ER-α inhibitory ELISA assay was performed using a Human ER-α/Estrogen Receptor ELISA Kit (Sandwich ELISA) (Lifespan Biosciences, Seattle, Washington, USA) as previously described.[64] The cells were plated at a density of 2000 cells/well in a 96-well plate. […] After 24 h, the pellets of the cells were collected by centrifugation. The cells were washed three times with PBS and then lysed by ultrasonication, and the supernatant was collected for testing. The wells were loaded with 100 μL of either standards or samples and incubated for 90 min at 37 °C. The wells were washed with 1× wash buffer for removing any unbound sample and 100 μL 1× biotinylated detection antibody was next put in and incubated for 1 h at 37 °C. The wells were rewashed with 1× wash buffer, and 100 μL 1× HRP conjugate was then added and incubated for 30 min at 37 °C. A third wash with 1× wash buffer was done and 90 μL of the TMB substrate was added. The TMB substrate reacted with the HRP enzyme, ensuring a color development, and the reaction was terminated using 50 μL of a stop solution. Finally, the optical density (OD) of the well was measured at a wavelength of 450 nm ± 2 nm. The OD of an unknown sample was calculated by correlation with a standard curve generated by standards with known concentrations.

MCF-12A cells = assay: Morphological assessment under inverted microscope; format: cell-based, human; details: 50 and 100 μM; 48 h after treatment
Procedure: (§1) In addition to the viability analyses, morphological evaluations were performed after treating the cells with different doses of 6j (5, 10, 20, 50, and 100 μM) to better understand what was going on in the plate wells. The cells were photographed under an inverted microscope 48 h after 6j treatment. […] The cell morphology has not deteriorated, and the membrane structures were preserved in a healthy way in the 6j-applied cells.
(§2) Morphological studies were performed to observe the effects of 6j on MCF-7 and MCF-12A cells, as previously reported.[63] In brief, 5 × 10^5 cells were seeded into six-well plates and incubated for 24 h. Afterward, increasing doses of compound 6j (5, 10, 20, 50, and 100 μM) were applied to the cells. The medium containing 0.1% DMSO was used as the untreated control. 48 h after treatments, the cells were photographed under an inverted microscope, Leica DM IL LED with a DFC-290 camera (Leica, Wetzlar, Germany).

MCF-7 cells = assay: Morphological assessment under inverted microscope; format: cell-based, human; details: 50 and 100 μM; 48 h after treatment
Procedure: as §1, §2

Solubility test by HPLC = format: physicochemical
Text: Studying drug solubility is a crucial part of the pre-formulation study. It is an integral phase that every drug has been through in any development process to determine its bioavailability and the best excipients used during formulation. The solubility of compound 6j was detected using HPLC in methanol, ethanol, and acetonitrile. […] With such results, compound 6j requires the addition of a surfactant to increase its solubility, especially in water. Different types of surfactants could be used to study their effect on increasing solubility in future plans. We see that this compound has the potential to go through the formulation study. […] Accordingly, the active compound 6j was analyzed with SwissADME. The physicochemical properties of compound 6j, molecular weight (392.83 g/mol), fraction Csp3 (0.09), rotatable bonds (5), H-bond acceptors (4), H-bond donors (1), molar refractivity (112.41), and topological polar surface area (TPSA) (60.45 Å^2) were measured. For lipophilicity, log Po/w (XLOGP3) (3.93), log Po/w (WLOGP) (3.98), log Po/w (MLOGP) (2.66), log Po/w (SILICOS-IT) (5.03) and consensus It was measured as log Po/w (3.75). […] The drug-likeness status of 6j was detected as suitable according to Lipinski, Ghose, Veber, Egan, and Muegge’s limited rules.[44] […]

Compound: COc1cc(C=C2C(=O)Nc3ccc(Cl)cc32)ccc1OCc1ccccn1 (mixture of isomers) [6j]
- anti-uterotrophic activity (inhibition of estrogen-induced uterine weight) [1]: 38%
- ER-α pg/mL (mean ± SEM) (ER-α): 424.9 ± 17.2 pg/mL
- inhibition (%) of ER-α (ER-α; compared to control): 62% and 62.4%
- MCF-12A cell morphology / proliferation (MCF-12A cells): continued to proliferate
- MCF-7 cell morphology / proliferation (MCF-7 cells): remained stable by stopping cell division without being toxic
- water solubility (Solubility test by HPLC): did not detect any water solubility
